Experimental findings from EP1969933A1, “Di-halogen phenoxy phenylamidines and their use as fungicides” (Bayer CropScience AG, priority 2007, dated 2008) are described below.

The subject of data set [1] is Podosphaera leucotricha. The data set can be described thus: Podosphaera test (apple) / protective. The data set is classed as in vivo. The conditions noted are these: 240 h, 100 ppm active ingredient, evaluated 10 days after inoculation, 0 % = control, 100 % = no infestation, read-out: Wirkungsgrad. An excerpt: (§1) Zur Herstellung einer zweckmäßigen Wirkstoffzubereitung vermischt man 1 Gewichtsteil Wirkstoff mit den angegebenen Mengen Lösungsmittel und Emulgator und verdünnt das Konzentrat mit Wasser auf die gewünschte Konzentration.
Zur Prüfung auf protektive Wirksamkeit werden junge Pflanzen mit der Wirkstoffzubereitung in der angegebenen Aufwandmenge besprüht. Nach Antrocknen des Spritzbelages werden die Pflanzen mit einer wäßrigen Sporensuspension des Apfelmehltauerregers Podosphaera leucotricha inokuliert. Die Pflanzen werden dann im Gewächshaus bei ca. 23°C und einer relativen Luftfeuchtigkeit von ca. 70% aufgestellt.
(§2) 10 Tage nach der Inokulation erfolgt die Auswertung. Dabei bedeutet 0% ein Wirkungsgrad, der demjenigen der Kontrolle entspricht, während ein Wirkungsgrad von 100% bedeutet, daß kein Befall beobachtet wird.

Data set [2] has as its system Sphaerotheca fuliginea. As to the kind of experiment: Sphaerotheca test (cucumber) / protective. The data set is classed as in vivo. Particulars: Podosphaera fuliginea, 168 h, 100ppm active ingredient, evaluated 7 days after inoculation, 0 % = control, 100 % = no infestation, read-out: Wirkungsgrad.
Description: as §1
Zur Prüfung auf protektive Wirksamkeit werden junge Pflanzen mit der Wirkstoffzubereitung in der angegebenen Aufwandmenge besprüht. Nach Antrocknen des Spritzbelages werden die Pflanzen mit einer wäßrigen Sporensuspension von Sphaerotheca fuliginea inokuliert. Die Pflanzen werden dann bei ca. 23°C und einer relativen Luftfeuchtigkeit von ca. 70% im Gewächshaus aufgestellt.
7 Tage nach der Inokulation erfolgt die Auswertung. Dabei bedeutet 0% ein Wirkungsgrad, der demjenigen der Kontrolle entspricht, während ein Wirkungsgrad von 100% bedeutet, daß kein Befall beobachtet wird.

In data set [3] the test system is Puccinia recondita. The data set can be described thus: Puccinia test (wheat) / protective. The conditions noted are these: 240 h, 1000 ppm active ingredient, protective spray, evaluated 10 days after inoculation, 0 % = control, 100 % = no infestation, read-out: Wirkungsgrad. The data set is classed as in vivo.
Description: as §1
Zur Prüfung auf protektive Wirksamkeit werden junge Pflanzen mit der Wirkstoffzubereitung in der angegebenen Aufwandmenge besprüht. Nach Antrocknen des Spritzbelages werden die Pflanzen mit einer Konidiensuspension von Puccinia recondita besprüht. Die Pflanzen verbleiben 48 Stunden bei 20°C und 100 % relativer Luftfeuchtigkeit in einer Inkubationskabine.
Die Pflanzen werden dann in einem Gewächshaus bei einer Temperatur von ca. 20°C und einer relativen Luftfeuchtigkeit von 80 % aufgestellt, um die Entwicklung von Rostpusteln zu begünstigen.
10 Tage nach der Inokulation erfolgt die Auswertung. Dabei bedeutet 0 % ein Wirkungsgrad, der demjenigen der Kontrolle entspricht, während ein Wirkungsgrad von 100 % bedeutet, daß kein Befall beobachtet wird.

Data set [4] relates to Erysiphe graminis f. sp. hordei. As to the kind of experiment: Erysiphe test (barley) / protective. The format is in vivo. The conditions noted are these: Blumeria graminis, 168 h, 500 ppm active ingredient, evaluated 7 days after inoculation, 0 % = control, 100 % = no infestation, read-out: Wirkungsgrad.
Description: as §1
Zur Prüfung auf protektive Wirksamkeit bespritzt man junge Getreidepflanzen mit der Wirkstoffzubereitung in der angegebenen Aufwandmenge. 1 Tag nach der Behandlung werden die Pflanzen mit Sporen von Erysiphe graminis f. sp. hordei inokuliert. Anschließend werden die Pflanzen in einem Gewächshaus bei 70 % relativer Luftfeuchtigkeit und einer Temperatur von 18°C aufgestellt.
7 Tage nach der Inokulation erfolgt die Auswertung. Dabei bedeutet 0 % ein Wirkungsgrad, der demjenigen der Kontrolle entspricht, während ein Wirkungsgrad von 100 % bedeutet, daß kein Befall beobachtet wird.

Data set [5] concerns Leptosphaeria nodorum. The data set can be described thus: Leptosphaeria nodorum test (wheat) / protective. Particulars: 500 ppm active ingredient, evaluated 12-14 days after inoculation, 0 % = control, 100 % = no infestation. The format is in vivo.
Description: as §1
Zur Prüfung auf protektive Wirksamkeit bespritzt man junge Weizenpflanzen mit der Wirkstoffzubereitung in der angegebenen Aufwandmenge. 1 Tag nach der Behandlung werden die Pflanzen mit einer wäßrigen Sporensuspension von Leptosphaeria nodorum inokuliert und verbleiben dann 48h bei 100% rel. Luftfeuchte und 20°C. Anschließend werden die Pflanzen in einem Gewächshaus bei 80 % rel. Luftfeuchtigkeit und einer Temperatur von 22°C aufgestellt.
12-14 Tage nach der Inokulation erfolgt die Auswertung. Dabei bedeutet 0 % ein Wirkungsgrad, der demjenigen der Kontrolle entspricht, während ein Wirkungsgrad von 100 % bedeutet, dass kein Befall beobachtet wird.

Data set [6] in a line: logP (acidic, pH 2.3, and neutral). The format is physicochemical.
The test system of data set [7] is Uromyces appendiculatus. The data set can be described thus: Uromyces test (bean) / protective. The data set is classed as in vivo. Particulars: 10ppm active ingredient, evaluated 10 days after inoculation, 0 % = control, 100 % = no infestation.
Description: as §1
Zur Prüfung auf protektive Wirksamkeit werden junge Pflanzen mit der Wirkstoffzubereitung in der angegebenen Aufwandmenge besprüht. Nach Antrocknen des Spritzbelages werden die Pflanzen mit einer wäßrigen Sporensuspension des Bohnenrosterregers Uromyces appendiculatus inokuliert und verbleiben dann 1 Tag bei ca. 20°C und 100% relativer Luftfeuchtigkeit in einer Inkubations-kabine.
Die Pflanzen werden dann im Gewächshaus bei ca. 21°C und einer relativen Luftfeuchtigkeit von ca. 90% aufgestellt.
as §2

Take `CCN(C)C=Nc1cc(C)c(Oc2cc(F)cc(Br)c2)cc1C` [Nr. 3]: the pest or weed control at 100 ppm in data set [1] and in data set [2] was no less than 70% each time. In addition, the pest or weed control at 1000 ppm in data set [3] was no less than 70%. In addition, the pest or weed control at 500 ppm in data set [4] was no less than 70%. Also, the Wirkungsgrad in data set [5] and in data set [7] was no less than 70% throughout. Moreover, the logP in data set [6] (neutral, read-out: logP neutr.) came out at 5.8. Also, the logD in data set [6] (pH 2.3, acidic, read-out: logP sauer) was 2.29.

In general, logP refers to the decadic logarithm of the partition coefficient of the neutral form, usually between octanol and water.
